Series [1] is described as follows: Inhibition of Bacillus anthracis enoyl ACP reductase assessed as inhibition of bacterial growth.
Series [2] relates to Bacillus anthracis. Nature of the series: Antibacterial activity against Bacillus anthracis assessed as reduction in bacterial growth measured after 24 hrs by broth microdilution method. It counts as functional. On the technique in general: Dilution methods test growth across graded concentrations, often in twofold steps.
Series [3] has as its system Staphylococcus aureus. Description: Antibacterial activity against methicillin resistant Staphylococcus aureus assessed as reduction in bacterial growth incubated for 12 hrs by microdilution method. It counts as functional.
The subject of series [4] is Staphylococcus aureus. Nature of the series: Bactericidal activity against methicillin-resistant Staphylococcus aureus measured after 24 hrs by sub-culturing. The format is functional.
The subject of series [5] is Staphylococcus aureus. Description: Bactericidal activity against methicillin-sensitive Staphylococcus aureus measured after 24 hrs by sub-culturing. It counts as functional.
For series [6], the system named is HeLa. Nature of the series: Cytotoxicity against human HeLa cells assessed as inhibition of cell growth incubated for 48 hrs by CCK8 assay. The format is functional, cell-based. Background: Tetrazolium dyes change colour on reduction, which living cells bring about.
Series [7] can be described thus: Cytotoxicity against mouse MH-S cells. It counts as functional, cell-based.
Series [8] addresses T1, Enoyl-[acyl-carrier-protein] reductase [NADPH] FabI (Staphylococcus aureus, UniProt Q6GI75).
T1 sequence (Q6GI75 whole entry): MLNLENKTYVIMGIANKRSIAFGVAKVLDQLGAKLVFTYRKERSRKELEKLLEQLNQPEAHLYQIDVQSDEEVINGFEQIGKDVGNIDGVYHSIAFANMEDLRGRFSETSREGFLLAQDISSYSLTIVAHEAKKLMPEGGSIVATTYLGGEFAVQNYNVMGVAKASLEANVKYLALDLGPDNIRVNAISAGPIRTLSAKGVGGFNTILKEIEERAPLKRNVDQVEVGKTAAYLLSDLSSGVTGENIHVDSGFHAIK
Description: Inhibition of Staphylococcus aureus FabI assessed as inhibition of bacterial growth by measuring the NADH consumption rate at 20 mins.

Series [9] has as its system Staphylococcus aureus. Description: Antibacterial activity against methicillin-sensitive Staphylococcus aureus assessed as reduction in bacterial growth incubated for 12 hrs by microdilution method. The format is functional.
The subject of series [10] is Staphylococcus epidermidis. Description: Antibacterial activity against methicillin-sensitive Staphylococcus epidermidis assessed as reduction in bacterial growth incubated for 12 hrs by microdilution method. It counts as functional.
Series [11] deals with Staphylococcus epidermidis. Nature of the series: Antibacterial activity against methicillin-resistant Staphylococcus epidermidis assessed as reduction in bacterial growth incubated for 12 hrs by microdilution method. It counts as functional.
The test system of series [12] is Staphylococcus aureus. Description: Antibacterial activity against Staphylococcus aureus ATCC 29213 assessed as bacterial growth inhibition incubated for 24 hrs by broth dilution method. It counts as functional.
For series [13], the target named is T1, Enoyl-[acyl-carrier-protein] reductase [NADPH] FabI. Nature of the series: Inhibition of Staphylococcus aureus ATCC 29213 FabI in the presence of NADH using crotonyl CoA as substrate by measuring NADH consumption rate.
Series [14] relates to Escherichia coli. Description: Antibacterial activity against Escherichia coli BAA 2340 assessed as reduction in microbial growth inhibition. It counts as functional.
The test system of series [15] is Klebsiella pneumoniae. Description: Antibacterial activity against Klebsiella pneumoniae BAA-1705. It counts as functional.
The test system of series [16] is Acinetobacter baumannii. Description: Antibacterial activity against Acinetobacter baumannii W41979. It counts as functional.
The subject of series [17] is Mycobacterium tuberculosis. Description: Antimycobacterial activity against Mycobacterium tuberculosis H37Rv assessed as reduction in bacterial growth incubated for 7 days by dye based assay. The format is functional. The note with it: 168 h, time 7 day.
The test system of series [18] is Staphylococcus aureus. Nature of the series: Antibacterial activity against Staphylococcus aureus assessed as bacterial growth inhibition. It counts as functional.
Series [19] has as its system Escherichia coli. Nature of the series: Antibacterial activity against Escherichia coli assessed as bacterial growth inhibition. It counts as functional.
Series [20] has as its system Pseudomonas aeruginosa. Nature of the series: Antibacterial activity against Pseudomonas aeruginosa assessed as bacterial growth inhibition. It counts as functional.
Series [21] is described as follows: Cytotoxicity against human HepG2 cells assessed as reduction in cell viability […] incubated for 48 hrs by MTT assay. It counts as toxicity, cell-based.
Series [22] can be described thus: Cytotoxicity against African green monkey Vero cells assessed as reduction in cell viability by coulter counter method. The note with it: chlorocebus sabaeus. It counts as toxicity, cell-based.
Series [23] can be described thus: Selectivity index, ratio of CC50 for african green monkey Vero cells to CC50 for human HepG2 cells. It counts as toxicity. The note with it: Vero cells and HepG2 cells, read-out: Selectivity Index.
For series [24], the system named is Mycobacterium tuberculosis. Nature of the series: Antimycobacterial activity against Mycobacterium tuberculosis ATCC 25618 extracellular forms assessed as inhibition of microbial growth. It counts as functional.
The test system of series [25] is Staphylococcus aureus. Nature of the series: Antibacterial activity against Staphylococcus aureus assessed as inhibition of bacterial growth measured after 24 hrs. It counts as functional.
For series [26], the target named is T1, Enoyl-[acyl-carrier-protein] reductase [NADPH] FabI. Description: Inhibition of Staphylococcus aureus FabI assessed as inhibition at 10 uM.
Series [27] relates to Mycobacterium tuberculosis. Description: Antibacterial activity against Mycobacterium tuberculosis assessed as inhibition of […]. The format is functional.
The test system of series [28] is Staphylococcus epidermidis. Description: Antibacterial activity against Methicillin-resistant Staphylococcus epidermidis ATCC 35984 assessed as reduction in bacterial growth. It counts as functional.
In series [29] the test system is Staphylococcus aureus. Description: In vivo antibacterial activity against methicillin-resistant Staphylococcus aureus infected in murine assessed as reduction in bacterial burden. It counts as functional.
Series [30] addresses T2, Enoyl-[acyl-carrier-protein] reductase [NADH] (Mycobacterium tuberculosis, UniProt P9WGR1).
T2 sequence (P9WGR1 whole entry): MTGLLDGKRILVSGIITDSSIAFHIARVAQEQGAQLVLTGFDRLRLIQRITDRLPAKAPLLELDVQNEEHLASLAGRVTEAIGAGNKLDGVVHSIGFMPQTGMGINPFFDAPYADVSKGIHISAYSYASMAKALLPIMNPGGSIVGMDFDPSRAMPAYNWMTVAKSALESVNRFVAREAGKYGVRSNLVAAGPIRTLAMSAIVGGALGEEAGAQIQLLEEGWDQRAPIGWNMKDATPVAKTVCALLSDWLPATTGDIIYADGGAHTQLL
Description: Inhibition of Mycobacterial tuberculosis ATCC 25618 FabI assessed as measuring NADH consumption rate.

Each structure is given as a SMILES string. Values after ≈ are worked out from the molar mass of the structure shown.

Turning to `CCCc1ccc(Oc2ccc([N+](=O)[O-])cc2Cl)c(O)c1`, in series [1], the 50% inhibitory concentration (IC50) was 0.5 µM. In addition, the minimal inhibitory concentration (MIC) in series [2] came to 1.9 µg/mL (≈ 6.17 µM); in [3], 0.3 µg/mL (≈ 0.975 µM). For the same molecule, the values for the MBC in series [4] and in series [5] were 1.2 µg/mL (≈ 3.9 µM) and 2.9 µg/mL (≈ 9.42 µM), respectively. The EC50 in series [6] stood at 41.1 µg/mL (≈ 134 µM); in series [7] it was 22.6 µg/mL (≈ 73.4 µM).
Turning to `Cc1c(CN(C)C(=O)/C=C/c2cnc3c(c2)CCC(=O)N3)oc2ccccc12` [AFN-1252], the IC50 came to 0.014 µM in series [8] and 9.6 µM in [13]. Also, the MIC90 is ≤ 0.008 µg/mL in [9], 0.03 µg/mL (≈ 0.0799 µM) in series [10] and ≤ 0.008 µg/mL in series [11]. In addition, the minimum inhibitory concentration (MIC) is 0.008 µg/mL (≈ 0.0213 µM) in [12], > 32 µg/mL in [14], > 32 µg/mL in [15] and > 32 µg/mL in series [16].
`Cc1ccc(C2=NCC(c3ccc(Oc4ccccc4)c(O)c3)C2)cc1` (stereo not given): the MIC in series [17] was 18 µM (≈ 6.18 µg/mL); in [18] it was 9 µM (≈ 3.09 µg/mL); in [19], 18.2 µM (≈ 6.26 µg/mL); in [20] it was 18 µM (≈ 6.18 µg/mL). Besides, in [21], the half-maximal cytotoxic concentration (CC50) at 48 h is > 596 µM. Further, the CC50 in series [22] was > 646 µM. Moreover, the selectivity ratio in series [23] was > 10.
`CC1(C)CCC(Cc2cc(O)c(-c3ccccc3)c(=O)[nH]2)CC1`: in [24], the MIC came to 0.05 µM.
Regarding `CC(C)=CCc1c(O)ccc(C(=O)[C@H]2[C@@H](c3c(O)cc(-c4cc5ccc(O)cc5o4)cc3O)C=C(C)C[C@@H]2c2ccc(O)cc2O)c1O` [CHALCOMORACIN], in [25], the MIC came to 4 µg/mL (≈ 6.17 µM). Further, the IC50 in series [26] came to 5.5 µM.
For the molecule `OB1c2ccccc2N=C(S)N1c1cccnc1`, the minimum inhibitory concentration (MIC) in series [27] is 8 µg/mL (≈ 31.4 µM).
In the case of `Cc1c(C2CN(C(=O)/C=C/c3cnc4c(c3)CCC(=O)N4)C2)oc2ccccc12`, the minimal inhibitory concentration (MIC) in series [28] was found to be 0.5 µg/mL (≈ 1.29 µM). Also, the ED50 in series [29] was 0.9 mg/kg.
Take `C=C1C(=O)OC[C@H]1C/C=C(\C)CC(=O)C=C(C)C`: in series [30], the IC50 is 18.1 µM.

As usually defined, the IC50 is the midpoint of a concentration-inhibition curve. A word on the MIC: it is the lowest concentration that inhibits growth of the organism. For orientation: MBC means the smallest concentration meeting the test's criterion for killing. Broadly, the EC50 is the concentration at which the effect is half-maximal. As usually defined, the MIC90 is an inhibitory concentration at the 90% level, which refers to growth in some studies and to a panel of isolates in others. Broadly, the CC50 is the concentration giving 50% cytotoxicity. What is called ED50 is the midpoint of the dose-response relation.
